Experimental data reported in patent US10906889B2, “Polycyclic inhibitors of cyclin-dependent kinase 7 (CDK7)” (Dana-Farber Cancer Institute, Inc., priority 2013, dated 2021).
Where two headings read alike, the source gives them in different places.

Assays:
Jurkat cells = test: Cell proliferation (CellTiter-Glo, 72 hour), Jurkat; type: cell-based; conditions: Homo sapiens, blood cancer cell line
CDK7 = biological target: T1, CDK7 (Homo sapiens, UniProt P50613); test: Adapta kinase assay (Life Technologies), CDK7; type: biochemical
T1 construct: purchased Life Technologies (assay service)
T1 sequence (P50613 whole entry): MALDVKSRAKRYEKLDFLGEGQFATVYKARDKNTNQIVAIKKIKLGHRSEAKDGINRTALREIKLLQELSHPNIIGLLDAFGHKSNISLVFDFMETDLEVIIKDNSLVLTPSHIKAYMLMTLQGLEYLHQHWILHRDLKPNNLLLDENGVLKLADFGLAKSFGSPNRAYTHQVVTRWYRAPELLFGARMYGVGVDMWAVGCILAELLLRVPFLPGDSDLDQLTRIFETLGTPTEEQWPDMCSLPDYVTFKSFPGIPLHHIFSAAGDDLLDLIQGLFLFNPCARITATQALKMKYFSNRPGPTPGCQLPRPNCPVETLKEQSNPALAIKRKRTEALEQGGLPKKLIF
T1 sequence (P51946 whole entry partner): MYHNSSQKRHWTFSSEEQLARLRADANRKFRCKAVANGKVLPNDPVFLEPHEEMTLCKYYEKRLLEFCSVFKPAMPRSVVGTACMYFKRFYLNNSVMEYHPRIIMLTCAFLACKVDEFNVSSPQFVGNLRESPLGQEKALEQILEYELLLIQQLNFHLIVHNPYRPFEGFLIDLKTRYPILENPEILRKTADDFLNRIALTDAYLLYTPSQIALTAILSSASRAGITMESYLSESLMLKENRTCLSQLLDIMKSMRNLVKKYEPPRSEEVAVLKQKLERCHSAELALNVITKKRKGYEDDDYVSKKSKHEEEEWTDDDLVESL
T1 sequence (P51948 whole entry partner): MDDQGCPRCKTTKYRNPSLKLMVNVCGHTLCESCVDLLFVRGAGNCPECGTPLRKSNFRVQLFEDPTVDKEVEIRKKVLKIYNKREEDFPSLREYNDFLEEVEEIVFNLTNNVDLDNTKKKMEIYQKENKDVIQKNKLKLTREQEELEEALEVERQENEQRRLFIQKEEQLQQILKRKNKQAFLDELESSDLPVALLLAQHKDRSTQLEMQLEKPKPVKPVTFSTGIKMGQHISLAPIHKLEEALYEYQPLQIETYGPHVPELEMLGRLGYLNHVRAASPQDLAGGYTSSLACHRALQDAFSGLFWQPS

[1] = Table 1C, co-factors cyclin H and MNAT1, read-out: CDK7 IC50

IC50 (Jurkat cells)	IC50 (CDK7; [1])	IC50 (CDK7; Table 2, co-factors cyclin H and MNAT1, read-out: CDK7 (calculated IC50))	Compound
< 500 nM	100 to 1000 nM		CN(C)C/C=C/C(=O)Nc1ccc(S(=O)(=O)N[C@H]2CCC[C@@H](Nc3ncc(Cl)c(-c4c[nH]c5ccccc45)n3)C2)cc1 [Compound 123, (E)-N-(4-(N-((1S,3R)-3-(5-chloro-4-(1H-indol-3-yl)pyrimidin-2-ylamino)cyclohexyl)sulfamoyl)phenyl)-4-(dimethylamino)but-2-enamide]
< 500 nM	< 100 nM		O=C(/C=C/CO)Nc1ccc(C(=O)N[C@H]2CCC[C@@H](Nc3ncc(Cl)c(-c4c[nH]c5ccccc45)n3)C2)cc1 [Compound 124, N-((1S,3R)-3-(5-chloro-4-(1H-indol-3-yl)pyrimidin-2-ylamino)cyclohexyl)-4-((E)-4-hydroxybut-2-enamido)benzamide]
< 500 nM	< 100 nM		CN(C)C/C=C/C(=O)Nc1ccc(C(=O)N[C@H]2CCC[C@@H](Nc3ncc(Cl)c(-c4c[nH]c5ccccc45)n3)C2)cc1F [Compound 126, N-((1S,3R)-3-(5-chloro-4-(1H-indol-3-yl)pyrimidin-2-ylamino)cyclohexyl)-4-((E)-4-(dimethylamino)but-2-enamido)-3-fluorobenzamide]
500 to 5000 nM	100 to 1000 nM		CN(C)C/C=C/C(=O)Nc1ccc(CN(C(=O)OC(C)(C)C)[C@H]2CCC[C@@H](Nc3ncc(Cl)c(-c4c[nH]c5ccccc45)n3)C2)cc1 [Compound 127, tert-butyl (1S,3R)-3-(5-chloro-4-(1H-indol-3-yl)pyrimidin-2-ylamino) cyclohexyl(4-((E)-4-(dimethylamino)but-2-enamido)benzyl)carbamate]
	> 1000 nM		CN(C)C/C=C/C(=O)Nc1ccc(C(=O)N[C@H]2CCC[C@@H](Nc3nccc(-c4c[nH]c5ccccc45)n3)C2)cc1 [Compound 132, N-((1S,3R)-3-(4-(1H-indol-3-yl)pyrimidin-2-ylamino)cyclohexyl)-4-((E)-4-(dimethylamino)but-2-enamido)benzamide]
	> 1000 nM		C=CC(=O)Nc1ccc([C@@H](N[C@H]2CCC[C@@H](Nc3ncc(Cl)c(-c4c[nH]c5ccccc45)n3)C2)C(F)(F)F)cc1 [Compound 136, N-(4-((R)-1-((1S,3R)-3-(5-chloro-4-(1H-indol-3-yl)pyrimidin-2-ylamino)cyclohexylamino)-2,2,2-trifluoroethyl)phenyl)acrylamide]
	< 100 nM		CN(C)C/C=C/C(=O)Nc1ccc(C(=O)N[C@H]2CCC[C@@H](Nc3ncc(Cl)c(-c4cn(C)c5ccccc45)n3)C2)cc1 [Compound 150]
	< 100 nM		C=CC(=O)Nc1ccc(C(=O)N[C@H]2CCC[C@@H](Nc3ncc(Cl)c(-c4n[nH]c5ccccc45)n3)C2)cc1 [Compound 151, 4-acrylamido-N-((1S,3R)-3-((5-chloro-4-(1H-indazol-3-yl)pyrimidin-2-yl)amino)cyclohexyl)benzamide]
	< 100 nM		C=CC(=O)Nc1ccc(C(=O)N[C@H]2CCC[C@@H](Nc3ncc(Cl)c(-c4c(C)[nH]c5ccccc45)n3)C2)cc1 [Compound 153, 4-acrylamido-N-((1S,3R)-3-((5-chloro-4-(2-methyl-1H-indol-3-yl)pyrimidin-2-yl)amino)cyclohexyl)benzamide]
	< 100 nM		Cc1[nH]c2ccccc2c1-c1nc(N[C@@H]2CCC[C@H](NC(=O)c3ccc(NC(=O)/C=C/CN(C)C)cc3)C2)ncc1Cl [Compound 154, N-((1S,3R)-3-((5-chloro-4-(2-methyl-1H-indol-3-yl)pyrimidin-2-yl)amino)cyclohexyl)-4-((E)-4-(dimethylamino)but-2-enamido)benzamide]
	> 1000 nM		C=CC(=O)Nc1cccc(CO[C@H]2CC[C@H](Nc3ncc(Cl)c(-c4c[nH]c5ccccc45)n3)CC2)c1 [Compound 155, N-(3-((((1R,4R)-4-((5-chloro-4-(1H-indol-3-yl)pyrimidin-2-yl)amino)cyclohexyl)oxy)methyl)phenyl)acrylamide]
	100 to 1000 nM		CON(C)C/C=C/C(=O)Nc1ccc(C(=O)N[C@H]2CCC[C@@H](Nc3ncc(Cl)c(-c4c[nH]c5ccccc45)n3)C2)cc1 [Compound 160]

The remaining lines, values behind:

Compound	IC50 (Jurkat cells)	IC50 (CDK7; [1])	IC50 (CDK7; Table 2, co-factors cyclin H and MNAT1, read-out: CDK7 (calculated IC50))
CN(C)C/C=C/C(=O)Nc1ccc(C(=O)NC2CC(O)CC(Nc3ncc(Cl)c(-c4c[nH]c5ccccc45)n3)C2)cc1 (racemic) [Compound 109, (+/−)-N-(-3-(5-chloro-4-(1H-indol-3-yl)pyrimidin-2-ylamino)-5-hydroxycyclohexyl)-4-((E)-4-(dimethylamino)but-2-enamido)benzamide]	< 500 nM	< 100 nM	
CN(C)C/C=C/C(=O)Nc1ccc(C(=O)NC2CC(F)CC(Nc3ncc(Cl)c(-c4c[nH]c5ccccc45)n3)C2)cc1 (racemic) [Compound 119, (+/−)-N-(3-(5-chloro-4-(1H-indol-3-yl)pyrimidin-2-ylamino)-5-fluorocyclohexyl)-4-((E)-4-(dimethylamino)but-2-enamido)benzamide]	< 500 nM	< 100 nM	
CN(C)C/C=C/C(=O)Nc1ccc(C(=O)NC2CC(Nc3ncc(Cl)c(-c4c[nH]c5ccccc45)n3)CC(F)(F)C2)cc1 (racemic) [Compound 122, (+/−)-N-(5-(5-chloro-4-(1H-indol-3-yl)pyrimidin-2-ylamino)-3,3-difluorocyclohexyl)-4-((E)-4-(dimethylamino)but-2-enamido)benzamide]	< 500 nM	< 100 nM	
CN(C)C/C=C/C(=O)Nc1ccc(C(=O)NC2CCC(Nc3ncc(Cl)c(-c4c[nH]c5ccccc45)n3)CC2)cc1 (stereo not shown) [Compound 105]		< 100 nM	< 100 nM
CN(C)C/C=C/C(=O)Nc1ccc(C(=O)N[C@H]2CC[C@H](Nc3ncc(Cl)c(-c4c[nH]c5ccccc45)n3)CC2)cc1 [Compound 106]		< 100 nM	
CN(C)C/C=C/C(=O)Nc1ccc(C(=O)NC23CC4CC(C2)CC(Nc2ncc(Cl)c(-c5c[nH]c6ccccc56)n2)(C4)C3)cc1 [Compound 108, (E)-N-(3-(5-chloro-4-(1H-indol-3-yl)pyrimidin-2-ylamino)tricyclo[3.3.1.1^3,7]decanyl)-4-(4-(dimethylamino)but-2-enamido)benzamide]	500 to 5000 nM	100 to 1000 nM	
O=C(/C=C/CN1CCOCC1)Nc1ccc(C(=O)N[C@H]2CCC[C@@H](Nc3ncc(Cl)c(-c4c[nH]c5ccccc45)n3)C2)cc1 [Compound 110, N-((1S,3R)-3-(5-chloro-4-(1H-indol-3-yl)pyrimidin-2-ylamino)cyclohexyl)-4-((E)-4-morpholinobut-2-enamido)benzamide]	< 500 nM	< 100 nM	
CN1CCN(C/C=C/C(=O)Nc2ccc(C(=O)N[C@H]3CCC[C@@H](Nc4ncc(Cl)c(-c5c[nH]c6ccccc56)n4)C3)cc2)CC1 [Compound 111, N-((1S,3R)-3-(5-chloro-4-(1H-indol-3-yl)pyrimidin-2-ylamino)cyclohexyl)-4-((E)-4-(4-methylpiperazin-1-yl)but-2-enamido)benzamide]	< 500 nM	< 100 nM	
C=CC(=O)Nc1ccc(C(=O)N[C@H]2CCC[C@@H](Nc3ncc(Cl)c(-c4c[nH]c5ccccc45)n3)C2)cc1 [Compound 112, 4-acrylamido-N-((1S,3R)-3-(5-chloro-4-(1H-indol-3-yl)pyrimidin-2-ylamino)cyclohexyl)benzamide]	< 500 nM	< 100 nM	
C=C(C)C(=O)Nc1ccc(C(=O)N[C@H]2CCC[C@@H](Nc3ncc(Cl)c(-c4c[nH]c5ccccc45)n3)C2)cc1 [Compound 113, N-((1S,3R)-3-(5-chloro-4-(1H-indol-3-yl)pyrimidin-2-ylamino)cyclohexyl)-4-methacrylamidobenzamide]	500 to 5000 nM	100 to 1000 nM	
CN(C)C/C=C/C(=O)Nc1ccc(NC(=O)[C@H]2CCC[C@@H](Nc3ncc(Cl)c(-c4c[nH]c5ccccc45)n3)C2)cc1 [Compound 114, (1S,3R,E)-3-(5-chloro-4-(1H-indol-3-yl)pyrimidin-2-ylamino)-N-(4-(4-(dimethylamino)but-2-enamido)phenyl)cyclohexanecarboxamide]	< 500 nM	< 100 nM	
CN(C)C/C=C/C(=O)Nc1ccc(C(=O)N[C@H]2CCC[C@@H](Nc3ncc(C4CC4)c(-c4c[nH]c5ccccc45)n3)C2)cc1 [Compound 115, N-((1S,3R)-3-(5-cyclopropyl-4-(1H-indol-3-yl)pyrimidin-2-ylamino)cyclohexyl)-4-((E)-4-(dimethylamino)but-2-enamido)benzamide]	< 500 nM	< 100 nM	
CN(C)C/C=C/C(=O)Nc1ccc(C(=O)N[C@H]2CCC[C@@H](Nc3ncc(Cl)c(-c4cccnc4)n3)C2)cc1 [Compound 116, N-((1S,3R)-3-(5-chloro-4-(pyridin-3-yl)pyrimidin-2-ylamino)cyclohexyl)-4-((E)-4-(dimethylamino)but-2-enamido)benzamide]	< 500 nM	100 to 1000 nM	
CN(C)C/C=C/C(=O)Nc1ccc(C(=O)N[C@H]2CCC[C@@H](Nc3ncc(C#N)c(-c4c[nH]c5ccccc45)n3)C2)cc1 [Compound 117, N-((1S,3R)-3-(5-cyano-4-(1H-indol-3-yl)pyrimidin-2-ylamino)cyclohexyl)-4-((E)-4-(dimethylamino)but-2-enamido)benzamide]	< 500 nM	< 100 nM	
CC(C)=CC(=O)Nc1ccc(C(=O)N[C@H]2CCC[C@@H](Nc3ncc(Cl)c(-c4c[nH]c5ccccc45)n3)C2)cc1 [Compound 118, N-((1S,3R)-3-(5-chloro-4-(1H-indol-3-yl)pyrimidin-2-ylamino)cyclohexyl)-4-(3-methylbut-2-enamido)benzamide]	500 to 5000 nM	100 to 1000 nM	
CN(C)C/C=C/C(=O)Nc1ccc(C(=O)N[C@@H]2C[C@H](F)C[C@H](Nc3ncc(Cl)c(-c4c[nH]c5ccccc45)n3)C2)cc1 [Compound 120, N-((1S,3R,5R)-3-(5-chloro-4-(1H-indol-3-yl)pyrimidin-2-ylamino)-5-fluorocyclohexyl)-4-((E)-4-(dimethylamino)but-2-enamido)benzamide]	500 to 5000 nM	100 to 1000 nM	
CN(C)C/C=C/C(=O)Nc1ccc(C(=O)NC23CCCC(Nc4ncc(Cl)c(-c5c[nH]c6ccccc56)n4)(C2)C3)cc1 [Compound 121, (E)-N-(5-(5-chloro-4-(1H-indol-3-yl)pyrimidin-2-ylamino)bicyclo[3.1.1]heptan-1-yl)-4-(4-(dimethylamino)but-2-enamido)benzamide]	< 500 nM	< 100 nM	
